Measurements reported in patent US20030207830A1, “Mutant NDP kinases for antiviral nucleotide analog activation and therapeutic uses thereof” (priority 2002, published 2003).

What was measured:
Assay type in all cases: biochemical
[1] = target: T1, human NDP kinase A (NDPK-A) variant L55H-N115S, SEQ ID NO: 3 (Homo sapiens, UniProt P15531, L55H/N115S); test: Pre-steady-state phosphotransfer, fluorescence stopped-flow; conditions: for k2/Ks: catalytic efficiency of phosphotransfer, L55H-N115S, pre-steady state; for Specificity change (R): ratio of catalytic efficiencies analog vs natural nucleotide, mutant vs wild type
T1 construct: made in house; host or cells: E. coli

[2] = target: T2, human NDP kinase A (NDPK-A) variant L55H (Homo sapiens, UniProt P15531, L55H); test: as above
T2 construct: made in house; host or cells: E. coli

[3] = target: T3, human NDP kinase A (NDPK-A) variant N115S, SEQ ID NO: 2 (Homo sapiens, UniProt P15531, N115S); test: as above; conditions: for k2/Ks: catalytic efficiency of phosphotransfer, N115S, pre-steady state; for Specificity change (R): ratio of catalytic efficiencies analog vs natural nucleotide, mutant vs wild type
T3 construct: made in house; host or cells: E. coli

[4] = target: T4, Dictyostelium discoideum NDP kinase (Dd-NDPK), wild type (Dictyostelium discoideum, UniProt P22887); test: as above; conditions: catalytic efficiency of phosphotransfer, wt
T4 construct: made in house
Experimental: (§1) (A) Kinetics of reaction of phosphorylated Dictyostelium wild type and N119S NDP kinases by 100 μM Acyclovir diphosphate (Acy-DP). The phosphorylated enzyme was prepared with a stoichiometry #1 as described (Deville-Bonne 1996). The kinases were preincubated with ATP in excess in buffer T (50 mM Tris-HCl, pH 7.5, 5 mM MgCl2 and 75 mM KCl). The increase in fluorescence upon mixing the phospho-enzyme (1 μM, final concentration) with Acy-DP in buffer T at 20° C. was monitored with a stopped-flow. The solid lines represent the best fit of each curve to a monoexponential.
(§2) (B) Concentration dependence of the rate constant on Acy-DP concentation. The pseudo-first order rate constant for the reaction (kobs) was plotted against Acy-DP.
(§3) All numbers in italics have already been published (Schneider, 1998, 2000) The kinetic constants were measured at the pre-steady-state level using a fluorescence stopped-flow device. The binding constants were determined at equilibrium by recording the increase in fluorescence (Schneider, 2000). Values are the average of three independent determinations.
(§4) Wild type human NDPK-A and the mutants were expressed and purified according to Schneider et al., 2000, Mol Pharm. Recombinant wild type and mutant Dd-NDPK were obtained as described (Schneid, 1998a), except for N119Y NDP kinase which was partially purified by Q sepharose FF chromatography. Each protein was characterized by […] electrophoresis. The concentration of 17 kDa subunits of the enzyme was either determined by Bradford assay ([…]) or using an absorbance coefficient of ΔA^280=1.249 for a 1 mg/mL solution of human wild type and N115S NDPK-A, and =0.55 for wild type and mutant N119S, N119T Dd-NDP kinases, respectively.
(§5) As the diphosphate form of analogs were not always available, the triphosphate analogs were used to study phosphate transfer in reaction as in Scheme I. Experiments were performed with an Hi-Tech DX2 microvolume stopped-flow reaction (Schneider, 1998) at Aexc=296 nm (for Ado derivatives) or […] (for other nucleotides), 2 mm excitation slit and a 320 nm cutoff filter at the emission. After mixing NDPK (1 μM) and NTP or an analogTP (10-500 μM), the intrinsic protein fluorescence was recorded for 10-200 sec. In each experiment, 400 pairs of data were recorded, and the data from 3-4 identical experiments were averaged and fitted to a number of non-linear analytical equations using the software provided by Hi-Tech. All curves fitted to single exponentials.
(§6) The data were analyzed using the reaction scheme: [drawing 1]
(§7) In both the forward and the reverse reactions, the product concentration remains very low, thus the product binding can be neglected, and the observed single step could be attributed to the phosphotransfer (Schneider, 1998). The rate of this observed single step is: [formula]
(§8) and reaches a limiting value (k+2) at NTP saturation. Saturation could not be obtained with the concentrations of any NTP used here. Therefore, catalytic efficiencies of phosphorylation (CEphos=k+2/(k−1/k+1)=k+2/KS) were measured, which are equivalent to second order constants and allow a reliable comparison of a variety of NDP kinase substrates.

[5] = target: T5, Dictyostelium discoideum NDP kinase (Dd-NDPK) variant N119S, SEQ ID NO: 1 (Dictyostelium discoideum, UniProt P22887, N119S); test: as above; conditions: for k2/Ks: catalytic efficiency of phosphotransfer, N119S, pre-steady state; for reaction with N119S relative to wild type (times faster): from k2/Ks of Table I
T5 construct: made in house
Experimental: as §1, §2, §3, §4, §5, §6, §7, §8

[6] = target: T6, Dictyostelium NDP Kinase wt (Dictyostelium discoideum, UniProt P22887); test: Pre-steady-state fluorescence stopped-flow phosphotransfer from nucleoside triphosphates, wild type Dd-NDPK; conditions: average of three determinations
T6 construct: made in house
Experimental: The binding constants were determined at equilibrium by recording the increase in fluorescence (Schneider, 2000).
After mixing NDPK (1 μM) and NTP or an analogTP (10-500 μM), the intrinsic protein fluorescence was recorded for 10-200 sec. In each experiment, 400 pairs of data were recorded, and the data from 3-4 identical experiments were averaged and fitted to a number of non-linear analytical equations using the software provided by Hi-Tech.
as §6
The rate of this observed single step is: [formula]
and reaches a limiting value (k+2) at NTP saturation. […] Therefore, catalytic efficiencies of phosphorylation (CEphos=k+2/(k−1/k+1)=k+2/KS) were measured, which are equivalent to second order constants and allow a reliable comparison of a variety of NDP kinase substrates.

T5 sequence (P22887 whole entry N119S): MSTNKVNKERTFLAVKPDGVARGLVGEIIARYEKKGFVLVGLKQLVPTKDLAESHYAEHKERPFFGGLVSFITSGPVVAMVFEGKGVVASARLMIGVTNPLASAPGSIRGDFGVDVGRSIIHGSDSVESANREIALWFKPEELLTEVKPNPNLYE
T3 sequence (P15531 whole entry N115S): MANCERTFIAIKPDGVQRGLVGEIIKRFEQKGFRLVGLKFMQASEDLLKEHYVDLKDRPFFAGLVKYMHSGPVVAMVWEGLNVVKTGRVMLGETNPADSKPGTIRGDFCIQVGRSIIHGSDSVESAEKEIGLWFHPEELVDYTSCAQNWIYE
T1 sequence (P15531 whole entry L55H/N115S): as the sequence (P15531 whole entry N115S) above, with L55H counted along it
T4 sequence (P22887 whole entry): as the sequence (P22887 whole entry N119S) above, with S119N counted along it
T2 sequence (P15531 whole entry L55H): as the sequence (P15531 whole entry N115S) above, with L55H, S115N counted along it
T6 sequence (P22887 whole entry): as the sequence (P22887 whole entry N119S) above, with S119N counted along it

| Compound | k2/Ks [1] | Specificity change (R) [1] | k2/Ks ([2]; catalytic efficiency of phosphotransfer, L55H, pre-steady state) | Specificity change (R) ([2]; ratio of catalytic efficiencies analog vs natural nucleotide, mutant vs wild type) | k2/Ks [3] | Specificity change (R) [3] | k2/Ks [4] | k2/Ks [5] | reaction with N119S relative to wild type (times faster) [5] | k2/Ks wt (catalytic efficiency of phosphotransfer) [6] |
| --- | --- | --- | --- | --- | --- | --- | --- | --- | --- | --- |
| Cc1cn([C@H]2C[C@H](N=[N+]=[N-])[C@@H](COP(=O)(O)OP(=O)(O)OP(=O)(O)O)O2)c(=O)[nH]c1=O [AZT-TP] | 6770 M⁻¹ s⁻¹ | (240) | 930 M⁻¹ s⁻¹ | (8) | 900 M⁻¹ s⁻¹ | (125) | 270 M⁻¹ s⁻¹ | 1100 M⁻¹ s⁻¹ | 4 times | – |
| Nc1nc2c(ncn2[C@H]2CC[C@@H](COP(=O)(O)OP(=O)(O)OP(=O)(O)O)O2)c(=O)[nH]1 [ddGTP, dideoxy-GTP] | 4200 M⁻¹ s⁻¹ | (160) | – | – | 750 M⁻¹ s⁻¹ | (60) | 2300 M⁻¹ s⁻¹ | 3500 M⁻¹ s⁻¹ | 1.5 times | 2300 M⁻¹ s⁻¹ |
